Data published in US20170333560A1, “Pharmaceutical Composition That Includes A Neutral Carrier Treated With Energy And Related Methods Of Treatment” (priority 2016, published 2017).

Key:
[1] = test system: pseudoneurotic disorder in patients with organic brain disease; assay: Study of pseudoneurotic disorder in organic brain disease (anxiety levels, Hamilton scale); type: in vivo, human
Protocol: A study was conducted to examine the efficacy of the claimed drug, formulated as a water solution (liquid dosage form) of the activated (potentized) energy-treated carrier, obtained by multiple consecutive dilution of the initial matrix solution in an aqueous-alcoholic diluent, combined with external mechanical impact—shaking of each resulting dilution, to a degree of 100^200, equivalent to a centesimal (C200) homeopathic dilution (wherein the energy treatment of the initial neutral carrier has been accomplished by exposing it to an electric current caused by a difference of potentials being applied to electrodes placed in the initial liquid carrier and which is proportional in amplitude to an amplified combined, summed signal, formed by summing the resultant signals—biopotential differences of individual referential derivations recorded in five healthy donors using the internationally recognized 10-20 system, which involves 19 active recording electrodes placed in regular positions all over the scalp and one reference electrode located on the ear-lobe)—further referred to as AP drug—in treating pseudoneurotic disorder in patients with organic brain disease. […]

[2] = test system: scopolamine-induced amnesia in male albino Wistar rats; assay: Scopolamine-induced amnesia for passive avoidance conditioning; type: in vivo, rat
Protocol: A study was conducted to evaluate the nootropic effect of the claimed drug, formulated as a water solution (liquid dosage form) of the activated (potentized) energy-treated carrier, obtained by multiple consecutive dilution of the initial matrix solution in an aqueous-alcoholic diluent, combined with external mechanical impact—shaking of each resulting dilution, to a degree of 100^200, equivalent to a centesimal (C200) homeopathic dilution (wherein the energy treatment of the initial liquid carrier has been accomplished by exposing it to an electric current caused by a difference of potentials being applied to electrodes placed in the initial liquid carrier and which is proportional in amplitude to an amplified combined, summed signal, formed by summing the resultant signals—biopotential differences of individual referential derivations recorded in five healthy donors using the internationally recognized 10-20 system, which involves 19 active recording electrodes placed in regular positions all over the scalp and one reference electrode located on the ear-lobe)—further referred to as AP drug, using standard experimental approaches—by examining the test drug's antiamnestic effects in scopolamine-induced amnesia for passive avoidance conditioning in sexually mature rats. A total of 36 male albino Wistar rats were used for the study.
For amnesia induction, 15 minutes prior to passive avoidance training, the animals were administered a single intraperitoneal dose (2 mg/kg) of a muscarinic receptor antagonist—scopolamine.
AP drug was administered to 12 rats intragastrically, at 2.5 ml/kg daily, prior to training (1 hour before the start of the experiment), immediately after training, 24 hours post training, and 1 hour prior to the passive avoidance recall test. […]
On the memory recall test, the rats' behavior was evaluated by examining: latency time taken by test animals to first enter the dark compartment and total time spent therein over a certain time period.
The conditioning of passive avoidance behavior was as follows: On day 1, the animals were trained to stay in a shuttle box, which consisted of a large, 300×300×250 mm, white illuminated compartment (with transparent walls) and a smaller, 150×150×180 mm, black dark compartment with an electrical grid floor. […] For 3 minutes, the total times of the rat's stay in the small compartment and latency before moving in were recorded. […]
The data gathered were recorded as the mean (M) and standard error of the mean (SEM). […] The results of examining the rats' memory recall were analyzed for statistical significance with the Wilcoxon test. […]

[3] = test system: children with clinical signs and symptoms of a hyperkinetic disorder (HD); assay: Comparative study versus piracetam in children with hyperkinetic disorder (SNAP-IV, TOVA, fine motor skills); type: in vivo, human; conditions: for TOVA Commission errors, % / TOVA Omission errors, % / TOVA Response time: after two months
From the text: The study included 57 children aged from 6 to 9 years (40 boys and 17 girls), who were nursery/preschool attendants and primary school students.
The inclusion criteria were: 1. Children with clinical signs and symptoms of a hyperkinetic disorder (HD) meeting the ICD-10 criteria (F 90); 2. Age range: 6 to 9 years; 3. At least a medium IQ score (90 points) on the Wechsler Intelligence Scale.
The study excluded children with behavior disturbances related to other mental disorders. Children with HD signs and symptoms who were allocated to the group of test treatment (n=30) received AP drug as a monotherapy, at 2 tablets 3 times daily for 2 months.
This assessment was repeated following two months of treatment with AP drug (test group) and piracetam (control group). The scores obtained were compared with the normative rating results and statistically analyzed (Table 11).
The computer-based psychophysiological TOVA assessment involved three sets of tests measuring inattention (omission errors), impulsivity (commission errors), and speed of information processing (response time). The baseline measurements of HD children were compared with those obtained in the test group (AP drug) and in the control group (piracetam) after two months of treatment.

[4] = test system: obsessive-compulsive disorder with prevailing anxiety disorders; assay: Study versus Diazepam in obsessive-compulsive disorder (HAM-A, STAI, SAN); type: in vivo, human
Protocol: A study was conducted to examine the efficacy of the claimed drug, formulated as a water solution (liquid dosage form) of the activated (potentized) energy-treated carrier, obtained by multiple consecutive dilution of the initial matrix solution in an aqueous-alcoholic diluent, combined with external mechanical impact—shaking of each resulting dilution, to a degree of 100^200, equivalent to a centesimal (C200) homeopathic dilution (wherein the energy treatment of the initial neutral carrier has been accomplished by exposing it to an electric current caused by a difference of potentials being applied to electrodes placed in the initial liquid carrier and which is proportional in amplitude to an amplified combined, summed signal, formed by summing the resultant signals—biopotential differences of individual referential derivations recorded in five healthy donors using the internationally recognized 10-20 system, which involves 19 active recording electrodes placed in regular positions all over the scalp and one reference electrode located on the ear-lobe)—further referred to as AP drug—in treating obsessive-compulsive disorder.
The tolerability and anxiolytic efficacy of AP drug was examined versus Diazepam in patients with obsessive-compulsive disorder with prevailing anxiety disorders. Inclusion criteria: • 1. Subjects aged from 18 to 65 years. • 2. Subjects meeting the obsessive-compulsive disorder criteria (ICD-10 code F42). • 3. Subjects receiving no treatment with psychoactive agents at least for a week before and at the time of the trial.
The study included 20 patients (8 men and 12 women) aged between 19 and 62 years old. The mean patient age and mean duration of disease were 38.0±1.6 years and 2.1±0.5 years, respectively.
The duration of treatment was […]. The patients randomized to AP drug (45) received it at a dose of 20 drops 4 times daily; the rest 35 patients were assigned to receive Diazepam at 15 mg daily.
The patients were assessed for OCD symptom severity at baseline (day 0) and at days 7, 14, and 28.

[5] = test system: depression in patients with post-traumatic stress disorders; assay: Comparative trial versus Heptral in stress-related depression (HAM-D, HADS, CGI); type: in vivo, human; parameters: CGI Efficacy Index / CGI Severity scale total score / CGI Improvement scale total score: scale not given here
Protocol: A randomized, […] study was conducted to examine the efficacy and safety of the claimed drug, formulated as a solid dosage form containing lactose granules impregnated with water-alcohol solution of the liquid activated (potentized) energy-treated carrier, obtained by multiple consecutive dilution of the initial matrix solution in an aqueous-alcoholic diluent, combined with external mechanical impact—shaking of each resulting dilution, to a degree of 100^200, equivalent to a centesimal (C200) homeopathic dilution (wherein the energy treatment of the initial liquid carrier has been accomplished by exposing it to an electric current caused by a difference of potentials being applied to electrodes placed in the initial liquid carrier and which is proportional in amplitude to an amplified combined, summed signal, formed by summing the resultant signals—biopotential differences of individual referential derivations recorded in five healthy donors using the internationally recognized 10-20 system, which involves 19 active recording electrodes placed in regular positions all over the scalp and one reference electrode located on the ear-lobe)—further referred to as AP drug, where it was used for treating depression in patients with post-traumatic stress disorders.
AP drug was administered to manage the depressive symptoms—in parallel to Heptral (adametionine), used as a comparator in efficacy assessment. AP drug was administered for 4 weeks at a dose of 2 tablets 4 times daily. Heptral was used at 400 mg 3 times (1200 mg) daily.
An open comparative clinical trial was performed which involved 30 patients (16 men and 14 women) assigned to two parallel groups: 15 patients in the group of AP drug and 15 in the heptral group. The mean age of participants assigned to AP drug was 38.0±4.39 years;
The period of study participation was 8 weeks (the total treatment duration of 4 weeks and 4 weeks of follow-up).
Neither of the patient groups was allowed to take psychoactive medications during the study. The drugs not prohibited for use during the treatment were medications for the underlying traumatic illness and co-existing somatic disorders. The study enrolled inpatients aged from 18 to 65 years old, who had been receiving medical attention for bodily injuries resulting from car accidents, which had taken place under circumstances threatening the life or welfare of the patient or/and their friends or family members suffering from anxiety mental disorders, such as (defined by the ICD-10) reaction to severe stress, and adjustment disorders (F43); adjustment disorders (F43.2); adjustment disorder with mixed anxiety and depressed mood (F43.23).
1. Reduced severity of depressive symptoms and signs as measured by the HADS. 2. Reduced severity of depressive symptoms and signs as measured by the HAM-D 3. Efficacy Index assessment on the Clinical Global Impression (CGI) scale.
The patients' mental health was examined at baseline—at admission to the clinic, following 1, 2 and 4 weeks of treatment, and 4 weeks after treatment discontinuation (follow-up).
The effect of study treatment was evaluated according to changes in the total HAM-D score and scoring outcomes on the HADS anxiety and depression subscales. In addition, the Clinical Global Impression scale was administered to primarily estimate the Efficacy Index for the treatment conducted.

O=C1CN=C(c2ccccc2Cl)c2cc(Br)ccc2N1 [phenazepam]
Hamilton scale score ([1]; after treatment): 31.7±1.5
Hamilton scale score ([1]; baseline score): 32.8±1.4

NC(=O)CN1CCCC1=O [piracetam]
Latency to enter the aversive compartment ([2]; Memory recall): 53.71 s
Time spent in the black compartment ([2]; Memory recall): 13.11 s
Latency to enter the aversive compartment ([2]; Training): 11.07 s
Time spent in the black compartment ([2]; Training): 21.1 s
Children with increased disinhibition/excitability ([3]; 2 months): 11.1%
Children with sleep problems ([3]; 2 months): 26%
TOVA Commission errors, % ([3]; First section): 12.5 ± 3.2%
TOVA Omission errors, % ([3]; First section): 13.6 ± 1.4 %
TOVA Response time ([3]; First section): 736 ± 83 ms
TOVA Commission errors, % ([3]; Second section): 21.1 ± 2.7%
TOVA Omission errors, % ([3]; Second section): 17.2 ± 2.8 %
TOVA Response time ([3]; Second section): 656 ± 79 ms
Total score for fine motor skills ([3]; after treatment completion): 1.62 ± 0.16
SNAP-IV Attention problems ([3]; after two months of treatment): 2.48 ± 0.12
SNAP-IV Hyperactivity ([3]; after two months of treatment): 2.41 ± 0.10
SNAP-IV Impulsivity ([3]; after two months of treatment): 2.28 ± 0.22

CN1C(=O)CN=C(c2ccccc2)c2cc(Cl)ccc21 [Diazepam]
HAM-A scores ([4]; Day 7): 19.02
HAM-A scores ([4]; Day 14): 12.93
Average reduction of HAM-A scores ([4]; at 28 days): 70.2%
Percentage of patients exhibiting treatment response (50% reduction of mean HAM-A score and over) ([4]; at 28 days): 100%
Mean SAN score ([4]; at treatment completion): 3.6
Occurrence of adverse reactions ([4]; throughout the study): 82.9%
Reduction in trait anxiety scores (STAI) ([4]; treatment completion): 22.3%
Reduction of situational anxiety (STAI) scores ([4]; treatment completion): 29.6%

C[S+](CC[C@H](N)C(=O)[O-])C[C@H]1O[C@@H](n2cnc3c(N)ncnc32)[C@H](O)[C@@H]1O (stereo partly shown) [Heptral, adametionine]
CGI Severity scale total score ([5]; Visit 1 (baseline)): 3.8 ± 0.17
Total HADS depression score ([5]; Visit 1 (baseline), n = 15): 17.5
Total HAM-D score ([5]; Visit 1 (baseline), n = 15): 26.2
CGI Efficacy Index ([5]; Visit 2 (week 1)): 1.1 ± 0.08
CGI Improvement scale total score ([5]; Visit 2 (week 1)): 2.9 ± 0.07
CGI Severity scale total score ([5]; Visit 2 (week 1)): 2.9 ± 0.12
Total HADS depression score ([5]; Visit 2 (week 1)): 13.2
Total HAM-D score ([5]; Visit 2 (week 1)): 23.1
CGI Efficacy Index ([5]; Visit 3 (week 2)): 1.8 ± 0.19
CGI Improvement scale total score ([5]; Visit 3 (week 2)): 2.1 ± 0.15
CGI Severity scale total score ([5]; Visit 3 (week 2)): 1.9 ± 0.12
Total HADS depression score ([5]; Visit 3 (week 2)): 9.6
Total HAM-D score ([5]; Visit 3 (week 2)): 15.6
CGI Efficacy Index ([5]; Visit 4 (week 4)): 2.3 ± 0.18
CGI Improvement scale total score ([5]; Visit 4 (week 4)): 1.2 ± 0.11
CGI Severity scale total score ([5]; Visit 4 (week 4)): 1.1 ± 0.07
Total HADS depression score ([5]; Visit 4 (week 4)): 6.5
Total HAM-D score ([5]; Visit 4 (week 4)): 14.1
CGI Efficacy Index ([5]; Visit 5 (follow-up)): 2.3 ± 0.18
CGI Improvement scale total score ([5]; Visit 5 (follow-up)): 1.1 ± 0.07
CGI Severity scale total score ([5]; Visit 5 (follow-up)): 1.0 ± 0.00
Total HADS depression score ([5]; Visit 5 (follow-up)): 3.5
Total HAM-D score ([5]; Visit 5 (follow-up)): 12.1
Adverse event anxiety worsening ([5]; group of 15): 2 patients
Adverse event dizziness ([5]; group of 15): 5 patients
Adverse event headache ([5]; group of 15): 3 patients
